Data: patent publication US5834431A, “Des-Arg^9 -BK antagonists” (Cortech, Inc., priority 1995, dated 1998)
Square brackets hold non-standard residues; d marks the D form. Peptide text beside a SMILES is read from it. * marks the point of attachment. Oic = O=C(O)[C@@H]1C[C@@H]2CCCC[C@@H]2N1; X1 = N=C(N)NCCC[C@@H](NC(=N)N)C(=O)*; dIgl = N[C@@H](C(=O)O)C1Cc2ccccc2C1; Gly(cPent) = N[C@H](C(=O)O)C1CCCC1; Igl = N[C@H](C(=O)O)C1Cc2ccccc2C1; Hyp = O=C(O)[C@@H]1C[C@@H](O)CN1; Tic = O=C(O)[C@@H]1Cc2ccccc2CN1; dTic = O=C(O)[C@H]1Cc2ccccc2CN1; 2Thi = N[C@@H](Cc1cccs1)C(=O)O

Tests used:
B1 receptor = target: T1, B1 receptor (Homo sapiens, UniProt P46663); assay: Human B1 binding, IL-1b-treated IMR-90 membranes, 3H-des-Arg9-Kallidin; settings: 0.5 nM 3H-des-Arg9-Kallidin, pIC50 = -log of molar IC50
T1 construct: Human lung fibroblasts IMR-90 cells were obtained from ATCC and propagated in DMEM media; host or cells: IMR-90 human lung fibroblasts, treated with interleukin 1b three hours before harvest; membranes
T1 sequence (P46663 1-353): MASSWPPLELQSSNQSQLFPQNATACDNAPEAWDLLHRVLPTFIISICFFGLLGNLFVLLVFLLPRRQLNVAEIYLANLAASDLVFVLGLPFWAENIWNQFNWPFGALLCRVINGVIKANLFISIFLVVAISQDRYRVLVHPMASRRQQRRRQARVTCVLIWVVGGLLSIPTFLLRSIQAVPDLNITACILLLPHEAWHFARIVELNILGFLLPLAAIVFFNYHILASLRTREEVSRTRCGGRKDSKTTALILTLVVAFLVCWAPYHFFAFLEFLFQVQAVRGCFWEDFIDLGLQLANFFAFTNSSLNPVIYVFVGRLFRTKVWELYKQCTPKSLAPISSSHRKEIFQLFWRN
Description: (§1) Human lung fibroblasts IMR-90 cells were obtained from ATCC and propagated in DMEM media in […] roller bottles until confluent. Three hours prior to harvesting, the cells were treated with Interleukin lb (200 pg/ml). Human BK2 clones were propagated in F12 media until confluent. Preparation of membranes for binding assays was carried out by scraping cells from roller bottles in ice cold PBS and centrifuging at 1000 ×g, at 4° C. for 15 minutes. The supernatant was discarded and pellet resuspended in Buffer A consisting of 25 mM TES(pH 6.8) with 2 uM 1,10-Phenanthroline, and centrifuged at 27,000 ×g for 15 min. this was then repeated. The final pellet was resuspended in Buffer B (Buffer A with 2 uM Captopril, 140 ug/Ml Bacitracin, 0.1%BSA), and stored in 1 ml aliquots, frozen at -20° C. until needed.
(§2) Binding assays were performed by incubating human clone membranes with 0.3 nM ^3 H-Bradykinin or IMR-90 membranes with 0.5 nM ^3 H-des-Arg^9 -Kallidin in the presence of the peptides in assay buffer (Buffer B with 1 mM Dithiotreitol), at room temperature, for 45 minutes. All test compound dilutions were in triplicate. Assays were harvested by quick filtration in a Tomtec Harvester 96, with ice cold wash buffer consisting of 10 mM Tris/HCl, pH 7.5, 100 mM NaCl, 0.02%BSA, onto Wallec printed glassfiber Filtermat "B", which had been pre-soaked with 0.1% PEI and previously air-dried.

B2 receptor [1] = target: T2, B2 receptor (Homo sapiens, UniProt P30411); assay: Human B2 binding, human BK2 clone membranes, 3H-Bradykinin; settings: 0.3 nM 3H-Bradykinin, i.a. = inactive; for IC50: read-out: Human Binding - pIC50 B2 (converted)
T2 construct: expressed in transfected cells
T2 sequence (P30411 1-391): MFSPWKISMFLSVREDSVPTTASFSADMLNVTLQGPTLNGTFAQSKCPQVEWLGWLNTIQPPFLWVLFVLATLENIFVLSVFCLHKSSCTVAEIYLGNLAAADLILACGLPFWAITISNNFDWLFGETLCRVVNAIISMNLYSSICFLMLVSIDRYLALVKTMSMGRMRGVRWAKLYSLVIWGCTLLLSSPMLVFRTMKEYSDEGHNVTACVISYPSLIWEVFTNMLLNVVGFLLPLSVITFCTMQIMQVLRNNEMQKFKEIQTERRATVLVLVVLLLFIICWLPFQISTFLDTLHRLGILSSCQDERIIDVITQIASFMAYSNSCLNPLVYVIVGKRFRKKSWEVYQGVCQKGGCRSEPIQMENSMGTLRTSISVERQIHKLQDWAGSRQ
Description: as §1
as §2, with “air-dried. Filtermats were counted in 9.5 mls Wallec Beta-Plate Scint, in Wallec 1450 MicroBeta Counter.” for “air-dried.”

B2 receptor [2] = target: T3, B2 receptor (Cavia porcellus, UniProt O70526); assay: GPI binding B2; settings: i.a. = inactive; for IC50: read-out: GPI Binding - pIC50 B2 (converted)
T3 construct: from tissue
T3 sequence (O70526 1-372): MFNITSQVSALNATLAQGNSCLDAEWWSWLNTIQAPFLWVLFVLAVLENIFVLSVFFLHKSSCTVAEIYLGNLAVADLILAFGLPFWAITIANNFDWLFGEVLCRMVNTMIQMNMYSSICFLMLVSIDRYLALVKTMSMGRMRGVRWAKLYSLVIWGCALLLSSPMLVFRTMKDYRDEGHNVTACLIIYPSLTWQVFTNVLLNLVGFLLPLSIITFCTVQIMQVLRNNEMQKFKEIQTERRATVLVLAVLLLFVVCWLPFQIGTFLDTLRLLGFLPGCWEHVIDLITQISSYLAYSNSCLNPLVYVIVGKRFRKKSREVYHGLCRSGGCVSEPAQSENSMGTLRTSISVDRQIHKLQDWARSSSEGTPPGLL

[3] = target: T4, BK1 (hypotensive response to desArg9BK) (Canis lupus familiaris, UniProt Q9BDQ5); assay: In vivo inhibition of hypotensive response to desArg9BK in anaesthetized dogs; design: species or system Mongrel dogs; settings: dog, infusion; dose of antagonist to inhibit hypotensive response to desArg9BK by 50%
T4 construct: Mongrel dogs of either sex, weight range 10-15 kg were used; from tissue; host or cells: whole anaesthetized mongrel dog (in vivo blood pressure)
T4 sequence (Q9BDQ5 1-350): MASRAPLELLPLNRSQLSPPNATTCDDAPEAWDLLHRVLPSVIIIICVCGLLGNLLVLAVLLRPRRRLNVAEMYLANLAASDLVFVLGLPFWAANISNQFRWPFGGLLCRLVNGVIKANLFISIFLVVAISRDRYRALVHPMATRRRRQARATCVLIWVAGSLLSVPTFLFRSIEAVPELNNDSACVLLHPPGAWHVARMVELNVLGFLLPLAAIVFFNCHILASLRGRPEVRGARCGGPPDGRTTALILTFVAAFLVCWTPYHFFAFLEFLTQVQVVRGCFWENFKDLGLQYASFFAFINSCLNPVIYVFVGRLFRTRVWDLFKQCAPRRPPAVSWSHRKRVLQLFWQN
Description: Mongrel dogs of either sex, weight range 10-15 kg were used. These were anaesthesized with pentobarbitone, 30 mg/kg i.v. and catheters placed in one femoral artery and both femoral veins for the recording of blood pressure and infusion and injection of compounds. […] After the end of the infusion of the highest dose of the antagonist compound, BK and des-Arg^9 -BK were injected at intervals for up to four hours.

SMILES	IC50 (B1 receptor) [nM]	IC50 (B2 receptor [1]) [nM]	IC50 (B2 receptor [2]) [nM]	Human Binding - pIC50 B2 (B2 receptor [1])	GPI Binding - pIC50 B2 (B2 receptor [2])	BK1 ED50 [3] [µg/kg/min]
N=C(N)NCCC[C@@H](N)C(=O)N[C@@H](CCCNC(=N)N)C(=O)N1CCC[C@H]1C(=O)N1C[C@H](O)C[C@H]1C(=O)NCC(=O)N[C@H](C(=O)N[C@@H](CO)C(=O)N1Cc2ccccc2C[C@H]1C(=O)N[C@H](C(=O)O)C1CCCC1)C1CCCC1 [B9004, DArg-Arg-Pro-Hyp-Gly-Cpg-Ser-Tic-Cpg] (H-[dR]RP[Hyp]G[Gly(cPent)]S[Tic][Gly(cPent)]-OH)	3.16	1580	6310	–	–	–
N=C(N)NCCC[C@@H](N)C(=O)N[C@@H](CCCNC(=N)N)C(=O)N1CCC[C@H]1C(=O)N1C[C@H](O)C[C@H]1C(=O)NCC(=O)N[C@@H](Cc1cccs1)C(=O)N[C@@H](CO)C(=O)N1Cc2ccccc2C[C@H]1C(=O)N[C@H](C(=O)O)C1CCCC1 [B9006, DArg-Arg-Pro-Hyp-Gly-Thi-Ser-Tic-Cpg] (H-[dR]RP[Hyp]G[2Thi]S[Tic][Gly(cPent)]-OH)	12.6	631	10000	–	–	–
N=C(N)NCCC[C@@H](N)C(=O)N[C@@H](CCCNC(=N)N)C(=O)N1CCC[C@H]1C(=O)N1C[C@H](O)C[C@H]1C(=O)NCC(=O)N[C@@H](Cc1cccs1)C(=O)N[C@@H](CO)C(=O)N1Cc2ccccc2C[C@@H]1C(=O)N[C@H](C(=O)O)C1CCCC1 [B9068, DArg-Arg-Pro-Hyp-Gly-Thi-Ser-DTic-Cpg] (H-[dR]RP[Hyp]G[2Thi]S[dTic][Gly(cPent)]-OH)	1.58	2000	7940	–	–	–
CC(C)C[C@H](NC(=O)[C@@H]1CCCN1C(=O)[C@H](CO)NC(=O)[C@H](Cc1ccccc1)NC(=O)CNC(=O)[C@@H]1CCCN1C(=O)[C@@H]1CCCN1C(=O)[C@H](CCCNC(=N)N)NC(=O)[C@H](CCCCN)NC(=O)CNC(=N)N)C(=O)O [B9810]	–	–	–	i.a	i.a	–
CC(C)C[C@H](NC(=O)[C@H](NC(=O)[C@H](CO)NC(=O)[C@@H](NC(=O)CNC(=O)[C@@H]1C[C@@H](O)CN1C(=O)[C@@H]1CCCN1C(=O)[C@@H](N)CCCNC(=N)N)C1Cc2ccccc2C1)C1Cc2ccccc2C1)C(=O)O [B9814, Arg-Pro-Hyp-Gly-Igl-Ser-DIgl-Leu] (H-RP[Hyp]G[Igl]S[dIgl]L-OH)	6.31	–	–	i.a	i.a	–
CC(C)C[C@H](NC(=O)[C@H](NC(=O)[C@H](CO)NC(=O)[C@@H](NC(=O)CNC(=O)[C@@H]1C[C@@H](O)CN1C(=O)[C@@H]1CCCN1C(=O)[C@H](CCCNC(=N)N)NC(=O)[C@H](N)CCCNC(=N)N)C1Cc2ccccc2C1)C1Cc2ccccc2C1)C(=O)O [B9816, DArg-Arg-Pro-Hyp-Gly-Igl-Ser-DIgl-Leu] (H-[dR]RP[Hyp]G[Igl]S[dIgl]L-OH)	1.26	631	2000	–	–	–
N=C(N)NCCC[C@H](NC(=O)[C@@H](CCCNC(=N)N)NC(=N)N)C(=O)N1CCC[C@H]1C(=O)N1C[C@H](O)C[C@H]1C(=O)NCC(=O)N[C@@H](Cc1cccs1)C(=O)N[C@@H](CO)C(=O)N[C@@H](C(=O)N1[C@H](C(=O)O)C[C@@H]2CCCC[C@@H]21)C1Cc2ccccc2C1 [B9826, Gun- DArg-Arg-Pro-Hyp-Gly-Thi-Ser-DIgl-Oic] (X1-RP[Hyp]G[2Thi]S[dIgl][Oic]-OH)	0.126	7.94	79.4	–	–	–
N=C(N)NCCC[C@@H](N)C(=O)N[C@@H](CCCNC(=N)N)C(=O)N1CCC[C@H]1C(=O)N1C[C@H](O)C[C@H]1C(=O)NCC(=O)N[C@H](C(=O)N[C@@H](CO)C(=O)N1Cc2ccccc2C[C@@H]1C(=O)N[C@H](C(=O)O)C1CCCC1)C1Cc2ccccc2C1 [B9840, DArg-Arg-Pro-Hyp-Gly-Igl-Ser-DTic-Cpg] (H-[dR]RP[Hyp]G[Igl]S[dTic][Gly(cPent)]-OH)	0.794	631	–	–	i.a	–
N=C(N)NCCC[C@H](NC(=O)[C@@H](N)CCCCN)C(=O)N1CCC[C@H]1C(=O)N1C[C@H](O)C[C@H]1C(=O)NCC(=O)N[C@H](C(=O)N[C@@H](CO)C(=O)N1Cc2ccccc2C[C@@H]1C(=O)N[C@H](C(=O)O)C1CCCC1)C1Cc2ccccc2C1 [B9842, Lys-Arg-Pro-Hyp-Gly-Igl-Ser-DTic-Cpg] (H-KRP[Hyp]G[Igl]S[dTic][Gly(cPent)]-OH)	0.251	631	–	–	i.a.	–
N=C(N)NCCC[C@H](NC(=O)[C@H](CCCCN)NC(=O)[C@@H](N)CCCCN)C(=O)N1CCC[C@H]1C(=O)N1C[C@H](O)C[C@H]1C(=O)NCC(=O)N[C@H](C(=O)N[C@@H](CO)C(=O)N[C@@H](C(=O)N1[C@H](C(=O)O)C[C@@H]2CCCC[C@@H]21)C1Cc2ccccc2C1)C1Cc2ccccc2C1 [B9858, Lys- Lys-Arg-Pro-Hyp-Gly-Igl-Ser-DIgl-Oic]	–	20	126	–	–	0.03 ± 0.01
